Assay results reported in patent US8012991B2, “Pyridoindolone derivatives substituted in the 3-position by a phenyl, their preparation and their application in therapeutics” (Sanofi-Aventis, priority 2002, dated 2011).

Row | melting point | SMILES
1 | 210 °C | Cc1cc(C)cc(-c2cc3c4cc(C)ccc4n(C)c3n(C)c2=O)c1 [Compound 1, 3-(3,5-Dimethylphenyl)-1,6,9-trimethyl-1,9-dihydro-2H-pyrido[2,3-b]indol-2-one]
2 | 170 °C | Cc1ccc2c(c1)c1cc(-c3ccc(Cl)cc3Cl)c(=O)n(C)c1n2C [Compound 2, 3-(2,4-Dichlorophenyl)-1,6,9-trimethyl-1,9-dihydro-2H-pyrido[2,3-b]indol-2-one]
3 | 130 °C | COc1ccc2c(c1)c1cc(-c3ccc(Cl)cc3Cl)c(=O)n(C)c1n2C [Compound 21, 3-(2,4-Dichlorophenyl)-6-methoxy-1,9-dimethyl-1,9-dihydro-2H-pyrido[2,3-b]indol-2-one]
